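Interpolation was linear, between the two tested concentrations surrounding the appropriate level; five concentrations were tested over 48 hours in 96-well plates. GI50 is the concentration that inhibits growth by half.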 Activity calls are given as the source filed them. Rule as the data show it: active = GI50 up to about 1.1 µM and inactive = higher.
Assays:
Experiment in all cases: NCI tumour cell line growth inhibition, 48 h
KM12 = test system: KM12
OVCAR-8 = test system: OVCAR-8
HL-60 = test system: HL-60
SK-MEL-28 = test system: SK-MEL-28
NCI-H226 = test system: NCI-H226
SN12C = test system: SN12C
COLO 205 = test system: COLO 205
HCC 2998 = test system: HCC 2998
SNB-78 = test system: SNB-78
OVCAR-5 = test system: OVCAR-5
SR = test system: SR
SF-539 = test system: SF-539
M19-MEL = test system: M19-MEL
EKVX = test system: EKVX
DMS-273 = test system: DMS-273
HCT-116 = test system: HCT-116
OVCAR-4 = test system: OVCAR-4
LXFL 529 = test system: LXFL 529
K562 = test system: K562
UACC-62 = test system: UACC-62
RPMI-8226 = test system: RPMI-8226
SW-620 = test system: SW-620
SF-268 = test system: SF-268
SK-MEL-2 = test system: SK-MEL-2
HOP-92 = test system: HOP-92
OVCAR-3 = test system: OVCAR-3
SNB-19 = test system: SNB-19
ACHN = test system: ACHN
UO-31 = test system: UO-31
A549 = test system: A549
NCI-H23 = test system: NCI-H23
M14 = test system: M14
HT-29 = test system: HT-29
CCRF-CEM = test system: CCRF-CEM
RXF 393 = test system: RXF 393
UACC-257 = test system: UACC-257
NCI-H460 = test system: NCI-H460
HCT-15 = test system: HCT-15
HOP-18 = test system: HOP-18
SNB-75 = test system: SNB-75
LOX IMVI = test system: LOX IMVI
HOP-62 = test system: HOP-62
SK-MEL-5 = test system: SK-MEL-5
DMS-114 = test system: DMS-114
TK-10 = test system: TK-10
MOLT-4 = test system: MOLT-4
IGROV-1 = test system: IGROV-1
KM-20L2 = test system: KM-20L2
U-251 = test system: U-251
DLD-1 = test system: DLD-1
SF-295 = test system: SF-295
A498 = test system: A498
NCI-H522 = test system: NCI-H522
SK-OV-3 = test system: SK-OV-3
CAKI-1 = test system: CAKI-1
786-0 = test system: 786-0
Malme-3M = test system: Malme-3M

## COc1cc(C2C(=O)C(Cl)N2Nc2nc(C)cc(O)n2)cc(OC)c1OC (stereo not given)
KM12
  GI50: 19 µM (inactive)
OVCAR-8
  GI50: 17.1 µM (inactive)
HL-60
  GI50: 9.84 µM (inactive)
SK-MEL-28
  GI50: 17 µM (inactive)
NCI-H226
  GI50: 22.1 µM (inactive)
SN12C
  GI50: 14.7 µM (inactive)
COLO 205
  GI50: > 10 µM (inactive)
HCC 2998
  GI50: 12.9 µM (inactive)
SNB-78
  GI50: 12.4 µM (inactive)
OVCAR-5
  GI50: 33 µM (inactive)
SR
  GI50: 11.6 µM (inactive)
SF-539
  GI50: 13.5 µM (inactive)
M19-MEL
  GI50: 18.7 µM (inactive)
EKVX
  GI50: 33.3 µM (inactive)
DMS-273
  GI50: 10.4 µM (inactive)
HCT-116
  GI50: 16.2 µM (inactive)
OVCAR-4
  GI50: 16.1 µM (inactive)
LXFL 529
  GI50: 12.9 µM (inactive)
K562
  GI50: 9.55 µM (inactive)
UACC-62
  GI50: > 10 µM (inactive)
RPMI-8226
  GI50: > 10 µM (inactive)
SW-620
  GI50: 22.2 µM (inactive)
SF-268
  GI50: 7.01 µM (inactive)
SK-MEL-2
  GI50: 11.2 µM (inactive)
HOP-92
  GI50: 16.9 µM (inactive)
OVCAR-3
  GI50: 4.91 µM (inactive)
SNB-19
  GI50: 30.4 µM (inactive)
ACHN
  GI50: 11.1 µM (inactive)
UO-31
  GI50: 13.4 µM (inactive)
A549
  GI50: 27.9 µM (inactive)
NCI-H23
  GI50: 15.4 µM (inactive)
M14
  GI50: 12.5 µM (inactive)
HT-29
  GI50: 23.8 µM (inactive)
CCRF-CEM
  GI50: < 0.01 µM (active)
RXF 393
  GI50: 12.3 µM (inactive)
UACC-257
  GI50: 22.5 µM (inactive)
NCI-H460
  GI50: 9.35 µM (inactive)
HCT-15
  GI50: 11.5 µM
HOP-18
  GI50: 2.67 µM (inactive)
SNB-75
  GI50: 2.33 µM (inactive)
LOX IMVI
  GI50: 10.5 µM (inactive)
HOP-62
  GI50: 7.21 µM (inactive)
SK-MEL-5
  GI50: 12.9 µM (inactive)
DMS-114
  GI50: 8.67 µM (inactive)
TK-10
  GI50: 24.3 µM (inactive)
MOLT-4
  GI50: 10.6 µM (inactive)
IGROV-1
  GI50: 10.1 µM (inactive)
KM-20L2
  GI50: 22.6 µM (inactive)
U-251
  GI50: 13.3 µM (inactive)

## COc1ccc(/C=N/n2c(C)nc3c(sc(=S)n3-c3ccccc3)c2=O)cc1
KM12
  GI50: > 100 µM (inactive)
DLD-1
  GI50: > 100 µM (inactive)
OVCAR-8
  GI50: > 100 µM (inactive)
HL-60
  GI50: 21.6 µM (inactive)
SK-MEL-28
  GI50: 43.7 µM (inactive)
NCI-H226
  GI50: > 100 µM (inactive)
COLO 205
  GI50: > 100 µM (inactive)
SF-295
  GI50: 37.2 µM (inactive)
HCC 2998
  GI50: > 100 µM (inactive)
OVCAR-5
  GI50: > 100 µM (inactive)
SR
  GI50: 44 µM (inactive)
SF-539
  GI50: 47.3 µM (inactive)
M19-MEL
  GI50: 63.2 µM (inactive)
HCT-116
  GI50: > 100 µM (inactive)
LXFL 529
  GI50: 49 µM (inactive)
K562
  GI50: 25.6 µM (inactive)
UACC-62
  GI50: 60.5 µM (inactive)
RPMI-8226
  GI50: 27 µM (inactive)
SW-620
  GI50: > 100 µM (inactive)
SF-268
  GI50: 44.8 µM (inactive)
A498
  GI50: 36 µM (inactive)
HOP-92
  GI50: 40.7 µM (inactive)
OVCAR-3
  GI50: 45.5 µM (inactive)
SNB-19
  GI50: 82.4 µM (inactive)
ACHN
  GI50: > 100 µM (inactive)
UO-31
  GI50: > 100 µM (inactive)
A549
  GI50: > 100 µM (inactive)
NCI-H522
  GI50: 21.4 µM (inactive)
NCI-H23
  GI50: > 100 µM (inactive)
SK-OV-3
  GI50: > 100 µM (inactive)
HT-29
  GI50: 37.2 µM (inactive)
CCRF-CEM
  GI50: 21.1 µM (inactive)
UACC-257
  GI50: 62.7 µM (inactive)
NCI-H460
  GI50: 31.6 µM (inactive)
HOP-18
  GI50: > 100 µM (inactive)
SNB-75
  GI50: 14.4 µM (inactive)
HOP-62
  GI50: 66.8 µM (inactive)
SK-MEL-5
  GI50: > 100 µM (inactive)
TK-10
  GI50: > 100 µM (inactive)
MOLT-4
  GI50: 34.4 µM (inactive)
IGROV-1
  GI50: > 100 µM (inactive)
U-251
  GI50: > 100 µM (inactive)

## O=C(O)C12C=CC(C1)c1ccccc12 (stereo not given)
DLD-1
  GI50: > 100 µM (inactive)
OVCAR-8
  GI50: > 100 µM (inactive)
HL-60
  GI50: > 100 µM (inactive)
SK-MEL-28
  GI50: > 100 µM (inactive)
NCI-H226
  GI50: > 100 µM (inactive)
SN12C
  GI50: > 100 µM (inactive)
COLO 205
  GI50: > 100 µM (inactive)
SF-295
  GI50: > 100 µM (inactive)
HCC 2998
  GI50: > 100 µM (inactive)
OVCAR-5
  GI50: > 100 µM (inactive)
SR
  GI50: > 100 µM (inactive)
M19-MEL
  GI50: > 100 µM (inactive)
DMS-273
  GI50: > 100 µM (inactive)
HCT-116
  GI50: > 100 µM (inactive)
OVCAR-4
  GI50: > 100 µM (inactive)
LXFL 529
  GI50: > 100 µM (inactive)
K562
  GI50: > 100 µM (inactive)
UACC-62
  GI50: > 100 µM (inactive)
RPMI-8226
  GI50: > 100 µM (inactive)
SW-620
  GI50: > 100 µM (inactive)
SF-268
  GI50: > 100 µM (inactive)
A498
  GI50: > 100 µM (inactive)
HOP-92
  GI50: > 100 µM (inactive)
OVCAR-3
  GI50: > 100 µM (inactive)
SNB-19
  GI50: > 100 µM (inactive)
ACHN
  GI50: > 100 µM (inactive)
UO-31
  GI50: > 100 µM (inactive)
A549
  GI50: > 100 µM (inactive)
NCI-H23
  GI50: > 100 µM (inactive)
M14
  GI50: > 100 µM (inactive)
SK-OV-3
  GI50: > 100 µM (inactive)
HT-29
  GI50: > 100 µM (inactive)
CCRF-CEM
  GI50: > 100 µM (inactive)
CAKI-1
  GI50: > 100 µM (inactive)
786-0
  GI50: > 100 µM (inactive)
UACC-257
  GI50: > 100 µM (inactive)
NCI-H460
  GI50: > 100 µM (inactive)
HCT-15
  GI50: > 100 µM
HOP-18
  GI50: > 100 µM (inactive)
LOX IMVI
  GI50: > 100 µM (inactive)
HOP-62
  GI50: > 100 µM (inactive)
SK-MEL-5
  GI50: > 100 µM (inactive)
DMS-114
  GI50: > 100 µM (inactive)
TK-10
  GI50: > 100 µM (inactive)
MOLT-4
  GI50: > 100 µM (inactive)
IGROV-1
  GI50: > 100 µM (inactive)
KM-20L2
  GI50: > 100 µM (inactive)
U-251
  GI50: > 100 µM (inactive)
Malme-3M
  GI50: > 100 µM (inactive)

— ChEMBL document CHEMBL1201862, “PubChem BioAssay data set” (2004)
